Values of other authors as cited in article PMC2788793 (Molecular immunology, 2008).

Target: mouse H2-Kb molecule (Mus musculus, UniProt P01901)
Conditions: ref Apostolopoulos et al., 2003

Chain of mouse H2-Kb molecule (P01901 whole entry, looked up): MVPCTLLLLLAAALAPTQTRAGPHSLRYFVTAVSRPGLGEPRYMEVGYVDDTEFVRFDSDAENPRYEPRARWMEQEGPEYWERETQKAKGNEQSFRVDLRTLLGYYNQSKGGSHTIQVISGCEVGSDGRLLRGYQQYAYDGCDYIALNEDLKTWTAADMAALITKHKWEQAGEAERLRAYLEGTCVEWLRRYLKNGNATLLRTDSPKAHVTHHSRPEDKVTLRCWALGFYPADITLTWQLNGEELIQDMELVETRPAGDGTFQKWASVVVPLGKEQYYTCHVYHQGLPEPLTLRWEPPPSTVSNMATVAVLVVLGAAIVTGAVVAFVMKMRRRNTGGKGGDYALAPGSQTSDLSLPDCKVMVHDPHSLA

## SAPDT(GalNAc-Gal)RPA
  Binding to mouse H2-Kb molecule: completely abolished its binding
